The IC50 is the concentration that inhibits the measured activity by half.

For 20 compounds, IC50 results are on record in patent US20240366581A1 (Hoffmann-La Roche Inc., priority 2022, published 2024).

Assay type in all cases: biochemical
One assay deals with SIK1 (Homo sapiens (Human), UniProt P57059). In words: SIK1 enzymatic activity assay, RapidFire mass spectrometry (CHK-peptide phosphorylation). The following applies: 5 nM SIK1, CHK-peptide, ATP, 30 min pre-incubation, 45 min reaction, RapidFire MS; read-out: SIK1 RF IC50. Here is the method: (§1) In the presence of SIK2 (resp. SIK1 or SIK3) and ATP the CHK-peptide ([…] with C-terminal arginine amide modification) were phosphorylated at one of the four feasible serine's. Only one phosphorylation is observed under the assay conditions. 60 nl of each compound dilution series (12 point; dilution factor 3, generally 30 μM to 170 pM) in DMSO were transferred by acoustic dispensing to the assay plate and 30 min pre-incubated (ambient temperature) after the addition of 5 μl SIK1 (5 nM) resp. 5 μl SIK2 (0.5 nM) or 7 μl SIK3 (1.5 nM) in assay-buffer (12.5 mM HEPES (pH 7.0), 10 mM magnesium acetate, 0.005% BSA). 10 μM CHK-peptide solution and 5 μl 100 μM ATP for SIK1 & SIK2 resp. 3 μl for SIK3 in assay-buffer were added and incubated ambient for 45 min. 40 μl 0.125% formic acid in water were added to quench the reaction. RapidFire (RF) Mass Spectrometry was utilized for data generation as described below. The multiple charged species (3-5 charges) for the phosphorylated and non-phosphorylated form measured by MRM (Multiple Reaction Monitoring; API5000 or 6500+) or EIC (Extracted Ion Current; QToF) were summed up and the ratio calculated (sum phosphorylated species/sum all species) for data evaluation. Normalization was performed by Genedata software based on the non-inhibition control DMSO and the commercially available SIK inhibitor @ 1 μM YKL-05-099 (CAS number 1936529-65-5). The results of the assay are expressed in half-maximal inhibitory concentrations (IC50s) and are summarized below in Table 1.
Chain of SIK1 (P57059 whole entry): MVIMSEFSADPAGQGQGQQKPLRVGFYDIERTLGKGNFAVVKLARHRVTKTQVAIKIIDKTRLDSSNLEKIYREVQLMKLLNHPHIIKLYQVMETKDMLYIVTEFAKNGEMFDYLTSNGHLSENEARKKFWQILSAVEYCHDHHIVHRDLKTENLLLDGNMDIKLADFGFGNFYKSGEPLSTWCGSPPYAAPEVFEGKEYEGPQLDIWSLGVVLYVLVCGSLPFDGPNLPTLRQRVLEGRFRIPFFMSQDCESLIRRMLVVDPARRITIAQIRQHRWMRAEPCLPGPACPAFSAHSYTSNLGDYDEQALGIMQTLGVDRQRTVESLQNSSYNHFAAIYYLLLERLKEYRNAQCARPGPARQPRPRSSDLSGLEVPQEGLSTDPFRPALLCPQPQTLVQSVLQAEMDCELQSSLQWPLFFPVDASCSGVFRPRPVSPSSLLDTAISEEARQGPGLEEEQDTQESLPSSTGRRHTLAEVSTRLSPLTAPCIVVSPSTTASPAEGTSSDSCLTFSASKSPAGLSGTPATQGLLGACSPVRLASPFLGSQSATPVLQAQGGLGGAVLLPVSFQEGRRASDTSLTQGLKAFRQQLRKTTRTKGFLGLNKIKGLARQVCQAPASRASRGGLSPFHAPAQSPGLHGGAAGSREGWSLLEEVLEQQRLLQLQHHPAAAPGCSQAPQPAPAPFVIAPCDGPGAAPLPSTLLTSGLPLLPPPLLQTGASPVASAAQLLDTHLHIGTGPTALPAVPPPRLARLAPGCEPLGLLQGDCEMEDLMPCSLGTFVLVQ
(§2) Samples were aspirated by vacuum for max. 600 ms and loaded to C4-cartridge (Agilent; #G9203A) for 3000 ms@1.5 ml/min with 0.1% formic acid in water. Afterwards samples were transferred to the API5000 (API6500+) or QToF mass spectrometer for 4000 ms@1.25 ml/min with 90% acetonitrile; 10% water; 0.007% TFA; 0.093 formic acid. The cartridge was reconditioned for additional 500 ms with 0.1% formic acid in water
(§3) All MS analyses using the following MS-setup in MRM mode: Electrospray positive; Ion Spray Voltage: 4000V; Temperature: 550° C.; Collision Gas: 5; Curtain Gas: 15; Gas1: 40; Gas 2: 42; EP: 10
(§4) All MS analyses using the following MS-setup in Mode MS: Dual AJS Electrospray positive; VCap: 3000V; Drying & Sheath gas: 340° C.@81/min; Nebulizer: 60 psig; Nozzle Voltage: 2000V; Fragmentor: 130V; Skimmer: 35V; Oct1 RF Vpp: 700V; Ref masses on@5spectra/s

For another assay, the target named is SIK2 (Homo sapiens (Human), UniProt Q9H0K1). Briefly: SIK2 enzymatic activity assay, RapidFire mass spectrometry (CHK-peptide phosphorylation). The following applies: 0.5 nM SIK2, CHK-peptide, ATP, 30 min pre-incubation, 45 min reaction, RapidFire MS; read-out: SIK2 RF IC50. Here is the method: as §1, §2, §3, §4
Chain of SIK2 (Q9H0K1 whole entry): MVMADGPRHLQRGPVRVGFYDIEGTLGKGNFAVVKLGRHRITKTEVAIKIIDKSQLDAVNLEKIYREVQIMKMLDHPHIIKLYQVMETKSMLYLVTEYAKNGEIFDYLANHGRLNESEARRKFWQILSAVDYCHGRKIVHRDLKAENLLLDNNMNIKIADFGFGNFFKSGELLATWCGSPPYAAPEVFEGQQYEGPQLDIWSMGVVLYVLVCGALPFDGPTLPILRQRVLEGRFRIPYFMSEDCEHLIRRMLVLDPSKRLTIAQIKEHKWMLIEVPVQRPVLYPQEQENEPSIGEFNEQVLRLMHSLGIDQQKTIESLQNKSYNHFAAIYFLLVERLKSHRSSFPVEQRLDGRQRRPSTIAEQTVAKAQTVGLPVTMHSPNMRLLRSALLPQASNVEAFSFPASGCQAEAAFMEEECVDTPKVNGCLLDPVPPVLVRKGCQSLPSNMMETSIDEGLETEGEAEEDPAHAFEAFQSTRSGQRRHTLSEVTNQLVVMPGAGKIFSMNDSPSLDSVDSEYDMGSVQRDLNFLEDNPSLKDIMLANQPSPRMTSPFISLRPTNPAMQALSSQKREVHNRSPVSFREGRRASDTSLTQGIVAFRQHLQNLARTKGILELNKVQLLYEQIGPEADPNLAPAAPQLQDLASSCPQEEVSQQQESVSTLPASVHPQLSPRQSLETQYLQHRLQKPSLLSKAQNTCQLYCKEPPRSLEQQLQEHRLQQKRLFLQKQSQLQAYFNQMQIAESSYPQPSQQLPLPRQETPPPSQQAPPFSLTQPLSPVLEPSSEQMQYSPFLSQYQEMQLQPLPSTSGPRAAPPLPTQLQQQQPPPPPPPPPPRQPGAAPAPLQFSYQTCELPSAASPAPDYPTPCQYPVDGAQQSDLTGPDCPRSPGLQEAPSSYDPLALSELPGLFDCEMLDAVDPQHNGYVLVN
A further assay has as its target SIK3 (Homo sapiens (Human), UniProt Q9Y2K2). In words: SIK3 enzymatic activity assay, RapidFire mass spectrometry (CHK-peptide phosphorylation). Particulars: 1.5 nM SIK3, CHK-peptide, ATP, 30 min pre-incubation, 45 min reaction, RapidFire MS; read-out: SIK3 RF IC50. How it is done:
as §1, §2, §3, §4

Where a name gives a salt, the structure may show the parent alone. Bounds are passed on as bounds.

Chain of SIK3 (Q9Y2K2 whole entry): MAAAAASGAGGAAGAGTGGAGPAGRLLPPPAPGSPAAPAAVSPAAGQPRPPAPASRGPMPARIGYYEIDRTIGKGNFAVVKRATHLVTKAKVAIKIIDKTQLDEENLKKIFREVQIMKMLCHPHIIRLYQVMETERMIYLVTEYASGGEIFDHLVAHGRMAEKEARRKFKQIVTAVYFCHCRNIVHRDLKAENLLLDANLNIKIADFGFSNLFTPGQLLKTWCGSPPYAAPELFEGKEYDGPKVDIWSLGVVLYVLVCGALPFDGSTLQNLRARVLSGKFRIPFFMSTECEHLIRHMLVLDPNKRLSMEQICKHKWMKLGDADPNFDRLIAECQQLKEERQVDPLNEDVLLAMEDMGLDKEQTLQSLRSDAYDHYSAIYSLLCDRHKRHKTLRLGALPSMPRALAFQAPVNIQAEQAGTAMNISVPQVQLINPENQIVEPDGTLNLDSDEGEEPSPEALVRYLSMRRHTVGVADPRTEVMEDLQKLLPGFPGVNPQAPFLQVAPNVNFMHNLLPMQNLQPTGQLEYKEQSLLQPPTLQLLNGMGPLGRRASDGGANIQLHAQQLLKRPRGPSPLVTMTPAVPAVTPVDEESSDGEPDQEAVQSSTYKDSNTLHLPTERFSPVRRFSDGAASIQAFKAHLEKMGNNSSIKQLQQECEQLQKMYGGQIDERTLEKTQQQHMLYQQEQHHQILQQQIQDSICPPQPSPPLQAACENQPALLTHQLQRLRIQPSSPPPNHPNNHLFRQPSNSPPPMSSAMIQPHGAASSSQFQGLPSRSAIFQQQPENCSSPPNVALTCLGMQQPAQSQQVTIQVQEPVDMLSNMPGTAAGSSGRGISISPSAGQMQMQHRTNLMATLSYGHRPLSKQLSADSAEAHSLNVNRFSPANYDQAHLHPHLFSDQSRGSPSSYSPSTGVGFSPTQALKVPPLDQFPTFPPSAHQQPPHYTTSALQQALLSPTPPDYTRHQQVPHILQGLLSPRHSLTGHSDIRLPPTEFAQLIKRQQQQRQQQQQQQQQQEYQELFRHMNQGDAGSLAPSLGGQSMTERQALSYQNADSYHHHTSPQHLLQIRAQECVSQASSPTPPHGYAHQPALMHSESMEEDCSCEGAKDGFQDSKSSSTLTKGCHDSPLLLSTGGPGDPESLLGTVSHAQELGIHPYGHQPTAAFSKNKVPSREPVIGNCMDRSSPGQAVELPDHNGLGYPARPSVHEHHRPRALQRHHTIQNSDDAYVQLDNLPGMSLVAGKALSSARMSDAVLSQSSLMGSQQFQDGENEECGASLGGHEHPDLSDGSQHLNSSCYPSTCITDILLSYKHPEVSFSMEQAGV

On to `Cc1ccc(Nc2ccc3c(c2)ncn3-c2ccc(C=O)c(-n3nc(C#N)cc3C)n2)nn1` [Example 36, 1-[3-formyl-6-[5-[(6-methylpyridazin-3-yl)amino]benzimidazol-1-yl]-2-pyridyl]-5-methyl-pyrazole-3-carbonitrile], for which the IC50 on SIK1 was found to be 274 nM; on SIK2, 5.2 nM; on SIK3 it was 0.7 nM.
As to `Cc1cc(C#N)nn1-c1nc(-n2cnc3cc(N[C@H]4CNC[C@H]4F)ccc32)ccc1C(N)=O` [Example 25, 2-(3-Cyano-5-methyl-pyrazol-1-yl)-6-[5-[[(3S,4R)-4-fluoropyrrolidin-3-yl]amino]benzimidazol-1-yl]pyridine-3-carboxamide; formic acid], the values for the half-maximal inhibitory concentration (IC50) at SIK1, at SIK2 and on SIK3 were 914 nM, 171 nM and 257 nM, respectively.
On to `CC(=O)c1ccc(-n2cnc3cc4c(cc32)CCN4)nc1-n1nc(C#N)cc1C` [Example 31, 1-[3-acetyl-6-(6,7-dihydro-5H-pyrrolo[2,3-f]benzimidazol-1-yl)-2-pyridyl]-5-methyl-pyrazole-3-carbonitrile], for which the IC50 was found to be 13 nM on SIK1, 9.1 nM at SIK2 and 1230 nM at SIK3.
In the case of `COc1cc2ncn(-c3ccc(C(N)=O)c(NCc4ccccc4)n3)c2cc1OC` [Example 3, 2-(benzylamino)-6-(5,6-dimethoxybenzimidazol-1-yl)pyridine-3-carboxamide], the IC50 was determined as 15.5 nM at SIK1, 7.8 nM on SIK2 and 156 nM at SIK3.
In the case of `COc1cc2ncn(-c3ccc(C(N)=O)c(NCc4cccs4)n3)c2cc1OC` [Example 7, 6-(5,6-dimethoxybenzimidazol-1-yl)-2-(2-thienylmethylamino)pyridine-3-carboxamide], the IC50 was found to be 29.7 nM at SIK1, 18.2 nM on SIK2 and 188 nM at SIK3.
Turning to `COC(=O)c1ccc(-n2cnc3cc(Nc4ccc(C)nn4)ccc32)nc1-n1nc(OC)cc1C` [Example 26, Methyl 2-(3-methoxy-5-methyl-pyrazol-1-yl)-6-[5-[(6-methylpyridazin-3-yl)amino]benzimidazol-1-yl]pyridine-3-carboxylate], the results for the IC50 at SIK1, at SIK2 and at SIK3 were 17800 nM, 154 nM and 49.4 nM, respectively.
As to `CC(=O)c1ccc(-n2cnc3cc(Nc4ccc(C)nn4)ccc32)nc1-n1nc(C#N)cc1C` [Example 27, 1-[3-Acetyl-6-[5-[(6-methylpyridazin-3-yl)amino]benzimidazol-1-yl]-2-pyridyl]-5-methyl-pyrazole-3-carbonitrile], the results for the IC50 at SIK1, on SIK2 and on SIK3 were 669 nM, 6.6 nM and 8.1 nM, respectively.
Consider `COc1cc(-n2cnc3cc(Nc4ccc(C)nn4)ccc32)nc(OC)c1C(C)=O` [Example 29, 1-[2,4-dimethoxy-6-[5-[(6-methylpyridazin-3-yl)amino]benzimidazol-1-yl]-3-pyridyl]ethanone], for which the IC50 amounted to 1460 nM at SIK1 and 86.7 nM at SIK2.
`CNC(=O)c1ccc(-n2cnc3cc(OC)c(OC)cc32)nc1-c1cccc(C#N)c1` [Example 18, 2-(3-Cyanophenyl)-6-(5,6-dimethoxybenzimidazol-1-yl)-N-methyl-pyridine-3-carboxamide; Formic Acid]: the half-maximal inhibitory concentration (IC50) worked out at 9470 nM on SIK1, 5770 nM at SIK2 and 13500 nM on SIK3.
For `Cc1ccc(Nc2ccc3ncn(-c4ccc(C(N)=O)c(OC(C)C(F)F)n4)c3c2)nn1` (stereo not shown) [Example 24], in that order: 605 nM, 206 nM and 95.7 nM.
In the case of `COc1cc2ncn(-c3ccc(C(N)=O)c(NCCc4ccccc4)n3)c2cc1OC` [Example 6, 6-(5,6-dimethoxybenzimidazol-1-yl)-2-(2-phenylethylamino)pyridine-3-carboxamide], the IC50 at SIK1 came to 2.8 nM; at SIK2, 2.5 nM; at SIK3, 39.9 nM.
Regarding `Cc1ccc(Nc2ccc3ncn(-c4ccc(C=O)c(N5C[C@H](C#N)C[C@@H]5C)n4)c3c2)nn1` [Example 32, (3R,5S)-1-[3-formyl-6-[6-[(6-methylpyridazin-3-yl)amino]benzimidazol-1-yl]-2-pyridyl]-5-methyl-pyrrolidine-3-carbonitrile], the IC50 at SIK1 amounted to 43 nM; on SIK2, 19.9 nM; on SIK3, 988 nM.
For the compound `CC(=O)c1ccc(-n2cnc3cc4c(cc32)C(C)(C)C(=O)N4c2ccc(C)nn2)nc1-n1nc(C#N)cc1C` [Example 35, 1-[3-acetyl-6-[6-keto-7,7-dimethyl-5-(6-methylpyridazin-3-yl)pyrrolo[2,3-f]benzimidazol-1-yl]-2-pyridyl]-5-methyl-pyrazole-3-carbonitrile], the half-inhibitory concentration (IC50) on SIK1 was determined as 101 nM; on SIK2, 115 nM; at SIK3, 150 nM.
In the same order, the values of `COc1cc2ncn(-c3ccc(C(N)=O)c(NC(CCN)c4ccsc4)n3)c2cc1OC` (stereo not shown) [Example 4, 2-[[3-amino-1-(3-thienyl)propyl]amino]-6-(5,6-dimethoxybenzimidazol-1-yl)pyridine-3-carboxamide hydrochloride] are 3.4 nM, 3.3 nM and 114 nM.
With `COC(=O)c1ccc(-n2cnc3cc(OC)c(OC)cc32)nc1N1CCCC1=O` [Example 15, Methyl 6-(5,6-dimethoxy-1H-benzo[d]imidazol-1-yl)-2-(2-oxopyrrolidin-1-yl)nicotinate], the half-inhibitory concentration (IC50) was determined as 1570 nM on SIK1, 828 nM at SIK2 and 4000 nM at SIK3.
For `Cc1ccc(Nc2ccc3c(c2)ncn3-c2ccc(C(N)=O)c(OC(C)C(F)F)n2)nn1` (stereo not shown) [Example 23, 2-(2,2-Difluoro-1-methyl-ethoxy)-6-[5-[(6-methylpyridazin-3-yl)amino]benzimidazol-1-yl]pyridine-3-carboxamide], the IC50 on SIK1 was determined as 361 nM; on SIK2 it was 15.2 nM; on SIK3 it was 4.9 nM.
`Cc1ccc(Nc2ccc3ncn(-c4ccc(C=O)c(-n5nc(C#N)cc5C)n4)c3c2)nn1` [Example 40, 1-[3-formyl-6-[6-[(6-methylpyridazin-3-yl)amino]benzimidazol-1-yl]-2-pyridyl]-5-methyl-pyrazole-3-carbonitrile]: the figures for the 50% inhibitory concentration (IC50) on SIK1, on SIK2 and on SIK3 were above 30000 nM, 536 nM and 8800 nM, respectively.
Consider `COc1cc2ncn(-c3ccc(C(N)=O)c(NC(CN)c4cccc(Cl)c4)n3)c2cc1OC` (stereo not shown) [Example 10, 2-[[2-amino-1-(3-chlorophenyl)ethyl]amino]-6-(5,6-dimethoxybenzimidazol-1-yl)pyridine-3-carboxamide hydrochloride], for which the values for the IC50 on SIK1, on SIK2 and on SIK3 were 1.7 nM, 1.2 nM and 44.9 nM, respectively.
On to `COc1cc2ncn(-c3ccc(C(N)=O)c(NC(CCN)c4cccc(Cl)c4)n3)c2cc1OC` (stereo not shown) [Example 11, 2-[[3-amino-1-(3-chlorophenyl)propyl]amino]-6-(5,6-dimethoxybenzimidazol-1-yl)pyridine-3-carboxamide hydrochloride], for which the results for the IC50 on SIK1, at SIK2 and at SIK3 were 6.3 nM, 15.8 nM and 206 nM, respectively.
Consider `CC(=O)c1ccc(-n2cnc3cc4c(cc32)NCC4)nc1-n1nc(C#N)cc1C` [Example 30, 1-[3-acetyl-6-(6,7-dihydro-5H-pyrrolo[3,2-f]benzimidazol-3-yl)-2-pyridyl]-5-methyl-pyrazole-3-carbonitrile], for which the IC50 came out at 547 nM at SIK1 and 816 nM on SIK2.
